According to ChEMBL document CHEMBL5230100, “Novel quinazoline-based EGFR kinase inhibitors: A review focussing on SAR and molecular docking studies (2015-2019)” (Eur J Med Chem, 2020):

Legend:
MDA-MB-231 [1] = assay: Antiproliferative activity against human MDA-MB-231 cells assessed as cell growth inhibition incubated for 24 hrs by MTT assay; format: functional, cell-based; conditions: MDA-MB-231, 24 h
Caspase-3 (Homo sapiens) = Caspase-3 (Homo sapiens) (UniProt P42574); assay: Activation of caspase 3 (unknown origin); conditions: filed as activator
Caspase-3 (Homo sapiens), sequence (P42574 29-175 limits assumed): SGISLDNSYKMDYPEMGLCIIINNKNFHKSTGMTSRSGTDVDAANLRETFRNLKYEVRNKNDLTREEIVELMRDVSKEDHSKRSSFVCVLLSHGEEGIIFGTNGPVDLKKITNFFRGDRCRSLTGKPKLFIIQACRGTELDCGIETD
Caspase-3 (Homo sapiens), sequence (P42574 176-277 limits assumed): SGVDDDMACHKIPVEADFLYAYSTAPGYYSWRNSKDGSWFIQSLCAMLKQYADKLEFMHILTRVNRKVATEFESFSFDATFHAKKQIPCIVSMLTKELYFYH

A549 [2] = assay: Antiproliferative activity against human A549 cells assessed as cell growth inhibition incubated for 72 hrs under normoxia condition by SRB assay; format: functional, cell-based; conditions: A549, 72 h
HT-29 [3] = assay: Antiproliferative activity against human HT-29 cells assessed as cell growth inhibition incubated for 72 hrs under normoxia condition by SRB assay; format: functional, cell-based; conditions: HT-29, 72 h
A549 [4] = assay: Antiproliferative activity against human A549 cells assessed as cell growth inhibition incubated for 72 hrs under hypoxia condition by SRB assay; format: functional, cell-based; conditions: A549, 72 h
HT-29 [5] = assay: Antiproliferative activity against human HT-29 cells assessed as cell growth inhibition incubated for 72 hrs under hypoxia condition by SRB assay; format: functional, cell-based; conditions: HT-29, 72 h
A549 [6] = assay: cells; conditions: Homo sapiens
Description: Antiproliferative activity against human A549 cells assessed as cell growth inhibition by MTT assay

A549 [7] = assay: cells; format: functional, cell-based; conditions: Homo sapiens, A549, 72 h
Description: Antiproliferative activity against human A549 cells assessed as cell growth inhibition incubated for 72 hrs by MTT assay

HT-29 [8] = assay: Antiproliferative activity against human HT-29 cells assessed as cell growth inhibition incubated for 72 hrs by MTT assay; format: functional, cell-based; conditions: Homo sapiens, HT-29, 72 h
[9] = target: Vascular endothelial growth factor receptor 2 (Homo sapiens, UniProt P35968)
Vascular endothelial growth factor receptor 2, sequence (P35968 whole entry): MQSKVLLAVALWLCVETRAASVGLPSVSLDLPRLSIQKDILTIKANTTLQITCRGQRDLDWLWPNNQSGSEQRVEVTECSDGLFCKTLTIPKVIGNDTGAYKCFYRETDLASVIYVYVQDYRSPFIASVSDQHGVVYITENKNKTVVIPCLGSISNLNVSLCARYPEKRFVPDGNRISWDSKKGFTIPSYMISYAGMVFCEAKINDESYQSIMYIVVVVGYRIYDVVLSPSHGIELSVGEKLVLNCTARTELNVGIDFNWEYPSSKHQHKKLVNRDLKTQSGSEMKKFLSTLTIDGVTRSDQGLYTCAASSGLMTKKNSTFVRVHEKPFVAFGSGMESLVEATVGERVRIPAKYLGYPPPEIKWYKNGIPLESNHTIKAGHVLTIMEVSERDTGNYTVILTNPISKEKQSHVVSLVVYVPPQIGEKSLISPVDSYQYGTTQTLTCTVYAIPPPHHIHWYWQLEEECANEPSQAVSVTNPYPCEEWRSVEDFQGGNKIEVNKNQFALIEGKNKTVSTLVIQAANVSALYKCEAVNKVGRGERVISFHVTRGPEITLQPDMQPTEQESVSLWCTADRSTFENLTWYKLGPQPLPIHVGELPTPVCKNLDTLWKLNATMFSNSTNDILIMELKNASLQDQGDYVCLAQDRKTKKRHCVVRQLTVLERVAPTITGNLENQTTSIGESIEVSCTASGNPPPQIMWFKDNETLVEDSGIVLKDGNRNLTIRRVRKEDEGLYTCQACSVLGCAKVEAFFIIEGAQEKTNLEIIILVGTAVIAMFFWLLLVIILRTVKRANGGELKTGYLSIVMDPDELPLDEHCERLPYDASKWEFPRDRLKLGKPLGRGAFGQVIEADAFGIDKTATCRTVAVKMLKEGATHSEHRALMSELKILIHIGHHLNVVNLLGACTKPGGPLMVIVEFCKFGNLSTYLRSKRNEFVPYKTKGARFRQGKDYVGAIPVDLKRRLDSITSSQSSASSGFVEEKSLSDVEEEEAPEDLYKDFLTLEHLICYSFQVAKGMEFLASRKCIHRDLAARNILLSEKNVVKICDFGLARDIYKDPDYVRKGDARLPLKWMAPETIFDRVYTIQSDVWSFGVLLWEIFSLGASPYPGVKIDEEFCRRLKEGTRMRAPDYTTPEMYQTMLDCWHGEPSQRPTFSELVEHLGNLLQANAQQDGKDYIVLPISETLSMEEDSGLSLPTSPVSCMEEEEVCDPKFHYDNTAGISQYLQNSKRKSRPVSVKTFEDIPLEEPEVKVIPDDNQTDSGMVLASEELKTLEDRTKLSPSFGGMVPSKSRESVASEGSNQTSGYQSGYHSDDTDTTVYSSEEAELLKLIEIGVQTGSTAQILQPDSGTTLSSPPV

NCI-H460 = assay: Antiproliferative activity against human NCI-H460 cells assessed as cell growth inhibition incubated for 72 hrs by MTT assay; format: functional, cell-based; conditions: NCI-H460, 72 h
MDA-MB-231 [10] = assay: cells; conditions: Homo sapiens, MDA-MB-231, 72 h
Description: Antiproliferative activity against human MDA-MB-231 cells assessed as cell growth inhibition incubated for 72 hrs by MTT assay

[11] = target: Epidermal growth factor receptor (Homo sapiens, UniProt P00533, T790M/L858R)
MCF7 = assay: Antiproliferative activity against human MCF7 cells assessed as cell growth inhibition incubated for 72 hrs by MTT assay; format: functional, cell-based; conditions: MCF7, 72 h
[12] = target: T1, Epidermal growth factor receptor (Homo sapiens, UniProt P00533)
T1 sequence (P00533 whole entry): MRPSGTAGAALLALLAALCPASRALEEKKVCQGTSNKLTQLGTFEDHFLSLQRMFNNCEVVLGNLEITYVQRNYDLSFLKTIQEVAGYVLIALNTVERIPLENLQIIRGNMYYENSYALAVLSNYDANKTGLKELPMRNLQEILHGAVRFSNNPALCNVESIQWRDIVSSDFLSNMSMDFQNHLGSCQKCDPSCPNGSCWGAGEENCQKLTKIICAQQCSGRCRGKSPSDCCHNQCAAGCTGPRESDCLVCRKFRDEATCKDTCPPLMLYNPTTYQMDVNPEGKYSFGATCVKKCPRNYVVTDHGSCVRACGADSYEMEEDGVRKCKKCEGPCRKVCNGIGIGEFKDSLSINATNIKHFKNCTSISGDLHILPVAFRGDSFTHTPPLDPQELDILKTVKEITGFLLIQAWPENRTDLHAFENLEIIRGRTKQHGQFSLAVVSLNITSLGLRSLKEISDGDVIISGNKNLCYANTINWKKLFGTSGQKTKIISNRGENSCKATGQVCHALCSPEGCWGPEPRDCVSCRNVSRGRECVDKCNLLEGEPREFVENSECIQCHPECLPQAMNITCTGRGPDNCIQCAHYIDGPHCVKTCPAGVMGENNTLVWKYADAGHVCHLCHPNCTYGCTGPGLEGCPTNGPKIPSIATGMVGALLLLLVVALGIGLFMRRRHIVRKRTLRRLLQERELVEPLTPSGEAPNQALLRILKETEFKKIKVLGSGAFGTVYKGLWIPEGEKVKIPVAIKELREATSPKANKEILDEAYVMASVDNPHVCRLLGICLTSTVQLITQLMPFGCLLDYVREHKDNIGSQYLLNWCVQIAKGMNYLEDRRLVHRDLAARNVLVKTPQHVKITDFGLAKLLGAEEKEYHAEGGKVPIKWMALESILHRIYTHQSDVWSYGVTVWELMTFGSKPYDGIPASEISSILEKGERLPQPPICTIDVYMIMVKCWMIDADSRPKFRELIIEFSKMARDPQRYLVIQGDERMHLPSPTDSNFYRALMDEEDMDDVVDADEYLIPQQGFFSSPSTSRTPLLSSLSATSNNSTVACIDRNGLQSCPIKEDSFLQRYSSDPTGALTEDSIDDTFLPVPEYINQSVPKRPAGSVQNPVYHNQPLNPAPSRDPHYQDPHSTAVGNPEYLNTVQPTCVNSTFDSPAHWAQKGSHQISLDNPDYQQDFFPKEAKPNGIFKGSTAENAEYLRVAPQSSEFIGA

HepG2 [13] = assay: Antiproliferative activity against human HepG2 cells assessed as cell growth inhibition incubated for 72 hrs by MTT assay; format: functional, cell-based; conditions: HepG2, 72 h
SW480 = assay: Antiproliferative activity against human SW480 cells assessed as cell growth inhibition by MTT assay; format: functional, cell-based
A-431 [14] = assay: Antiproliferative activity against human A-431 cells assessed as cell growth inhibition by MTT assay; format: functional, cell-based
NCI-H1975 = assay: Antiproliferative activity against human NCI-H1975 cells assessed as cell growth inhibition by MTT assay; format: functional, cell-based
A549 [15] = assay: Induction of apoptosis in human A549 cells measured after 48 hrs by Annexin V-FITC/ Propidium iodide staining based flow cytometry relative to control; format: functional
A-431 [16] = assay: Antiproliferative activity against human A-431 cells assessed as cell growth inhibition incubated for 24 hrs by MTT assay; format: functional
[17] = target: T1, Epidermal growth factor receptor; remark: listed apart in the source
A549 [18] = assay: Induction of apoptosis in human A549 cells assessed as late apoptotic cells measured after 48 hrs by Annexin V-FITC/ Propidium iodide staining based flow cytometry relative to control; format: functional
A549 [19] = assay: Antiproliferative activity against human A549 cells assessed as cell growth inhibition incubated for 24 hrs by MTT assay; format: functional, cell-based; conditions: A549, 24 h
HepG2 [20] = assay: cells; format: functional, cell-based; conditions: Homo sapiens, HepG2, 48 h
Description: Antiproliferative activity against human HepG2 cells assessed as cell growth inhibition incubated for 48 hrs by MTT assay

A549 [21] = assay: cells; format: functional, cell-based; conditions: Homo sapiens, A549, 48 h
Description: Antiproliferative activity against human A549 cells assessed as cell growth inhibition incubated for 48 hrs by MTT assay

A549 [22] = assay: Anticancer activity against human A549 cells assessed as cell growth inhibition incubated for 24 hrs by MTT assay; format: functional, cell-based; conditions: A549, 24 h
[23] = target: T1, Epidermal growth factor receptor; assay: Inhibition of human EGFR incubated for 1 hrs in presence of ATP by ELISA assay
[24] = target: T2, Receptor tyrosine-protein kinase erbB-2 (Homo sapiens, UniProt P04626)
T2 sequence (P04626 whole entry): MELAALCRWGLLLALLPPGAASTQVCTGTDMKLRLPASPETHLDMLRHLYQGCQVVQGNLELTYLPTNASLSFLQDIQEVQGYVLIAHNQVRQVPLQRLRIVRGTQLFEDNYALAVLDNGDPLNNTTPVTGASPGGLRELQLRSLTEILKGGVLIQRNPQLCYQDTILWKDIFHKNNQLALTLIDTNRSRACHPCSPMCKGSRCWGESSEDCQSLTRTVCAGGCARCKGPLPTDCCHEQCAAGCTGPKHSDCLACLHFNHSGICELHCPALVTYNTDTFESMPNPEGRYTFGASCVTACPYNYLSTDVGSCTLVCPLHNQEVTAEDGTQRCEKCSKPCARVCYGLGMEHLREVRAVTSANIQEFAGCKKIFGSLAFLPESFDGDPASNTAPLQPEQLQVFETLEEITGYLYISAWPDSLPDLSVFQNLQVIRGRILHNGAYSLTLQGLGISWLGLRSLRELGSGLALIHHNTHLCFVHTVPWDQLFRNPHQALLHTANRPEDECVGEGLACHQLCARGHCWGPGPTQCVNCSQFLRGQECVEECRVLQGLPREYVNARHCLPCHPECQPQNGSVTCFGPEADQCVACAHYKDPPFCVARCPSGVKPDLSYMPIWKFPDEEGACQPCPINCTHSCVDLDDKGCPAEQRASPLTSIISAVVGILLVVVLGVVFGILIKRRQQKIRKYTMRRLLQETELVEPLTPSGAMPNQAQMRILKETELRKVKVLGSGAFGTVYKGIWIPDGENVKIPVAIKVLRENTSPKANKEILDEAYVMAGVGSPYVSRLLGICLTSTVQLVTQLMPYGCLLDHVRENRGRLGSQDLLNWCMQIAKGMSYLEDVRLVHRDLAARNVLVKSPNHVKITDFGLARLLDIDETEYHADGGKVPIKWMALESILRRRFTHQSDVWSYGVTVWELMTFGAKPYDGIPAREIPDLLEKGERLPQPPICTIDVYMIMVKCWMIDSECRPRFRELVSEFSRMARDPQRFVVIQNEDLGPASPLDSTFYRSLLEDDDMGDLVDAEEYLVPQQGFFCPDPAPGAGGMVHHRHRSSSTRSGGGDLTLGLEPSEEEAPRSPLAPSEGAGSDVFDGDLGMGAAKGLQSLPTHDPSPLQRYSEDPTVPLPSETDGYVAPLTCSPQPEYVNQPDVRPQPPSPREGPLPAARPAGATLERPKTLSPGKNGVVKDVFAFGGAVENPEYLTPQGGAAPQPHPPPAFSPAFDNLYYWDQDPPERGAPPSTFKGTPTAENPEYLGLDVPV

[25] = target: T2, Receptor tyrosine-protein kinase erbB-2; assay: Inhibition of HER2 (unknown origin) incubated for 1 hrs by ELISA assay
MDA-MB-231 [26] = assay: Cytotoxicity against human MDA-MB-231 assessed as radio sensitizing effect incubated for 24 hrs in presence of gamma irradiation by MTT assay; format: functional
MDA-MB-231 [27] = assay: Anticancer activity against human MDA-MB-231 cells assessed as cell growth inhibition incubated for 24 hrs by MTT assay; format: functional, cell-based; conditions: MDA-MB-231, 24 h
[28] = target: T1, Epidermal growth factor receptor; assay: Inhibition of EGFR (unknown origin) incubated for 1 hrs by ELISA assay

Cc1ccc(NC(=O)CSc2nc3cc4ccccc4cc3c(=O)n2-c2ccc(S(N)(=O)=O)cc2)cc1C
IC50 (MDA-MB-231 [1]): 310 nM
Activity (Caspase-3 (Homo sapiens)): 546 pg/mL

CS(=O)(=O)CCNCc1ccc(-c2ccc3ncnc(Nc4ccc(OCc5cccc(F)c5)c(Cl)c4)c3c2)o1 [LAPATINIB]
IC50 (A549 [2]): 11300 nM
IC50 (HT-29 [3]): 6810 nM
IC50 (A549 [4]): 13300 nM
IC50 (HT-29 [5]): 8850 nM
IC50 (A549 [6]): 14900 nM

Cc1cccc(Cl)c1NC(=O)Nc1ccc(-c2nc(NCCN(C)C)c3ccccc3n2)cc1
IC50 (A549 [7]): 360 nM
IC50 (HT-29 [8]): 150 nM
IC50 [9]: 93 nM
IC50 (NCI-H460): 89 nM
IC50 (MDA-MB-231 [10]): 750 nM

O=C(N/N=C/c1cnc(N2CCCC2)nc1)Nc1cc2c(Nc3ccc(F)c(Cl)c3)ncnc2cc1O[C@H]1CCOC1
IC50 [11]: 8.4 nM
IC50 (MCF7): 2370 nM
IC50 (A549 [7]): 5900 nM
IC50 [12]: 6.3 nM
IC50 (HepG2 [13]): 4630 nM

CCN(CC)CCNCc1ccc(-c2ccc3ncnc(Nc4ccc(OCc5cccc(F)c5)c(Cl)c4)c3c2)o1
IC50 (SW480): 6670 nM
IC50 (A-431 [14]): 2210 nM
IC50 (NCI-H1975): 9790 nM
IC50 (A549 [6]): 5460 nM

C#Cc1cccc(Nc2ncnc3cc(OCCOC)c(OCCOC)cc23)c1 [ERLOTINIB]
Activity (A549 [15]): 53.9%
IC5 (A-431 [16]): 3 µM
Activity (Caspase-3 (Homo sapiens)): 480 pg/mL

COc1cc2ncnc(Nc3ccc(OCCn4ccnc4[N+](=O)[O-])c(Cl)c3)c2cc1OCCCN1CCOCC1
IC50 (A549 [2]): 1590 nM
IC50 (HT-29 [3]): 2460 nM
IC50 [17]: 120 nM
IC50 (A549 [4]): 1090 nM
IC50 (HT-29 [5]): 1350 nM

CN(C)C/C=C/C(=O)Nc1cc2c(Nc3ccc(F)c(Cl)c3)ncnc2cc1O[C@H]1CCOC1 [AFATINIB]
Activity (A549 [18]): 13.53%

COc1cc2ncnc(NCc3ccc(Cl)s3)c2cc1OC
IC50 (A549 [19]): > 50000 nM
IC5 (A-431 [16]): 3.4 µM

O=C(O)c1cc(O)c2c(c1)C(=O)c1cccc(O)c1C2=O [RHEIN]
IC50 (HepG2 [20]): 74600 nM
IC50 (A549 [21]): 138000 nM

Cc1ccccc1NC(=O)CSc1nc2cc3ccccc3cc2c(=O)n1-c1ccc(S(N)(=O)=O)cc1
IC50 (A549 [22]): 181 nM
IC50 [23]: 12 nM
IC50 [24]: 21 nM

CN1C(=O)c2ccc(NC(=O)CSc3nc4cc5ccccc5cc4c(=O)n3-c3ccc(S(N)(=O)=O)cc3)cc2C1=O
IC50 [25]: 1320 nM
Activity (MDA-MB-231 [26]): 0.18 µM
IC50 (MDA-MB-231 [27]): 500 nM
IC50 [28]: 640 nM
